According to patent US9072728B2, “Treatment of severe distal colitis” (priority 2003, dated 2015):

Tests used:
[1] = test system: IL-8 secretion in Calu-3 cells; test: IL-8 in basolateral supernatants of Calu-3 cells (ELISA); type: cell-based; conditions: for inhibition of secreted IL-8: Calu-3 cells stimulated with Salmonella, 30 μM test compound, 5 hours, FIG. 4
Procedure: Calu-3 cells were plated at subconfluency onto Costar inserts (3.0 μm membrane pore size) using standard techniques. After 24 hours, the apical well media was aspirated, and the Calu-3 cells were permitted to grow at the air/media interface. Basolateral media was changed every 2-3 days until they had grown into confluent monolayers (typically 7-10 days). Pathogenic Salmonella typhi were grown in Luria's both overnight at 37° C. (on the night prior to experimentation). The bacteria were washed twice in approximately 20 ml Hanks Balanced Salt Solution (HBSS). Prior to use, bacteria were spun down and resuspended in a total of 10 ml HBSS.
On the day of experimentation, inserts were washed in HBSS and placed into wells containing HBSS with either vehicle (0.0015% ethanol) or 30 μM of specific imidazole or non-imidazole containing test compound (all compounds were diluted from 20 mM working stock). 200 μL of bacteria were then loaded onto the apical compartment, and the cells were allowed to incubate for 5 hours. The basolateral buffer solutions from each insert were subsequently aspirated into eppendorfs and stored at −20° C. Calu-3 filters were cut and rotated for 30 minutes in 250 μL of lysis buffer [10 mL of PBS containing 1 Complete Protease Inhibitor Cocktail Tablet (Roche Pharmaceuticals) tablet and […]] at 4° C., spun at 14,000 for 20 minutes, and the clarified supernatant was stored at −20° C. Supernatant and lysate IL-8 protein content was measured by ELISA using standard techniques.

[2] = test system: human PMN transmigration across intestinal T84 cell monolayers; test: PMN transmigration across intestinal T84 cell monolayers (in-vitro model of colitis); type: cell-based; conditions: for attenuation of PMN transepithelial migration: FIG. 2A, 2B
Source text: Recruitment of polymorphonuclear neutrophils (PMN's) across intestinal epithelia and into the lumen, resulting in mucosal ulcerations or frank crypt abscesses, occurs in a broad spectrum of infectious, inflammatory, and allergic diarrheal states, including patients with inflammation of surgically constructed ileal reservoirs (“pouchitis”). The transmigration of PMN's across the epithelial barrier represents the pathognomonic feature of acute and active chronic intestinal inflammation. Since CLT has been previously shown to inhibit PMN chemotaxis in-vitro, this study tested if CLT may also be efficacious in attenuating PMN transmigration in an established in-vitro model of colitis using intestinal T84 cell monolayers.
The efficacy of CLT was compared to other antibiotic (metronidazole) and steroid (prednisone) agents that currently represent the standards of care for the topical or systemic therapy of pouchitis. […] […] As such, topical CLT treatment represents an attractive alternative for patients whose pouchitis disease has proven to be refractory to standard antibiotic or anti-inflammatory regimens. CLT may inhibit PMN transmigration by inhibiting the operation of plasma membrane K^+ or Ca^++ channels that are likely required to accommodate the volume changes necessary for PMN transmigration through epithelial intercellular tight junctions.

[3] = Serum CLT levels after rectal CLT suppositories (HPLC assay); type: in vivo, human
Procedure: (§1) The safety and efficacy of topical CLT therapy was also evaluated (delivered as a rectal suppository) in pediatric and adult patients with active pouchitis. In this study, subjects progressed through three escalating dosing levels: Step A (500 mg rectal suppositories applied twice daily); Step B (750 mg rectal suppositories applied twice daily); Step C (1,500 mg delivered twice daily). Serum levels (measured using a previously validated HPLC assay) were obtained within 3 to 6 hours after administering the morning (8 AM) dose of CLT and are presented in Table 2.

[4] = Safety laboratory data for CLT retention enemas; type: in vivo, human; conditions: change from baseline; retention enemas daily 3500-4000 mg; n=9
Procedure: In addition to efficacy data, safety data was also gathered for the use of CLT in retention enemas administered daily in a dose of 3500-4000 mg in the same group of patients. The following parameters were measured: urea nitrogen, Creatinine, aspartate aminotransferase (AST or SGOT), alanine aminotransferase (ALT or SGPT), alkaline phosphatase (Alk Phos), Total Bilirubin, Direct Bilirubin, Albumin, and Hematocrit.

[5] = oral CLT; mice, rats, and rabbits; cited from earlier work
[6] = oral CLT, experimental animals; cited from earlier work
[7] = test system: pediatric and adult patients with active pouchitis; test: Safety and clinical outcome of rectal CLT suppositories, open-labeled dose escalating trial; type: in vivo, human
Procedure: as §1
Rectal CLT delivered as a suppository, toxicity.
(§2) In this study, subjects were treated with escalating doses of study drug: Step A (500 mg rectal suppositories applied twice daily); Step B (750 mg rectal suppositories applied twice daily); Step C (1,500 mg delivered twice daily). Few parameters were measured including fecal lactoferrin, a marker of white blood cell excretion, to assess the effects of topical CLT therapy on PMN transmigration in patients with pouchitis. This assay has been previously validated as a quantitative biochemical measure of PMN transmigration in patients with infectious colitis and inflammatory bowel disease.

[8] = cited from earlier work
[9] = oral CLT 60-90 mg/Kg body weight/day; cited from earlier work
[10] = cited from earlier work; remark: listed apart in the source
[11] = test system: fecal lactoferrin, a marker of white blood cell excretion (PMN transmigration); test: Fecal lactoferrin in pouchitis patients treated with CLT suppositories; type: in vivo, human; conditions: in 6 of 8 subjects studied; rectal suppository
Procedure: as §2

IL-8 within Calu-3 cells = test: IL-8 in Calu-3 cell lysates (ELISA); type: cell-based; conditions: FIG. 5
[12] = cited from earlier work; remark: listed apart in the source
[13] = test system: IL-8 secretion from cultured intestinal (T84) epithelia; test: IL-8 secretion from cultured intestinal epithelial T84 cells; type: cell-based; conditions: T84 cells 30 minutes with CLT (30 μM) prior to stimulation with PMA, TNF or Salmonella typhimurium; each agonist; FIG. 3
Procedure: Intestinal epithelial cells play an active role in the mediation of intestinal inflammation through the production and regulated secretion of a variety of pro-inflammatory cytokines including IL-8. […] In these experiments, cultured intestinal epithelial T84 cells were incubated for 30 minutes with CLT (30 μM) prior to stimulation with either the protein kinase C stimulator PMA, the pro-inflammatory cytokine TNF, or a strain of pathogenic Salmonella typhimurium.

[14] = PMN's and T84 cells incubated with 30 μM of study drug for 30 minutes
[15] = after application of one vaginal tablet

With `c1c[nH]cn1` [imidazole] the “inhibition of secreted IL-8” value [1] was “Considerably less inhibition”.

For `Cc1ncc([N+](=O)[O-])n1CCO` [metronidazole], the “inhibition of PMN transmigration” value ([2]; PMN's and T84 cells incubated with 30 μM of study drug for 30 minutes, FIG. 2B) was 30-40%.

In the case of `OC(Cn1cncn1)(Cn1cncn1)c1ccc(F)cc1F` [fluconazole], the “inhibition of secreted IL-8” value [1] was “Considerably less inhibition”.

For `C[C@]12C=CC(=O)C=C1CC[C@@H]1[C@@H]2C(=O)C[C@@]2(C)[C@H]1CC[C@]2(O)C(=O)CO` [prednisone], the “attenuation of PMN transepithelial migration” value [2, 14] was “no attenuation”.

In the case of `CCC(C)n1ncn(-c2ccc(N3CCN(c4ccc(OCC5COC(Cn6cncn6)(c6ccc(Cl)cc6Cl)O5)cc4)CC3)cc2)c1=O` (stereo not shown) [itraconazole], the “inhibition of secreted IL-8” value [1] was “No inhibition”.

With `Clc1ccccc1C(c1ccccc1)(c1ccccc1)n1ccnc1` [CLT, clotrimazole] the “Serum CLT levels, Step A” value ([3]; 500 mg rectal suppositories twice daily, 3 to 6 hours after morning dose, one line per subject) was “below the level of detection”, the “systemic absorption from ileal pouches (measured as serum CLT concentration)” value ([3]; rectal suppository) was “generally poor systemic absorption” and the “serum CLT level at the time of renal diagnosis” value ([3]; subject two, CLT suppositories) was 0.08 µM. The “ALBUMIN, Change, MAX” value [4] was 1.1 G/DI, the “ALBUMIN, Change, MEAN” value [4] was 0.1 G/DI and the “ALBUMIN, Change, MEDIAN” value [4] was 0.0 G/DI. For the same molecule, the “ALBUMIN, Change, MIN” value [4] was −0.4 G/DI, the “ALKALINE PHOSPHATASE, Change, MAX” value [4] was 37.0 U/L and the “ALKALINE PHOSPHATASE, Change, MEAN” value [4] was −2.4 U/L. For the same molecule, the “ALKALINE PHOSPHATASE, Change, MEDIAN” value [4] was 1.0 U/L, the “ALKALINE PHOSPHATASE, Change, MIN” value [4] was −60.0 U/L and the “CREATININE, Change, MAX” value [4] was 0.1 mg/dL. For the same molecule, the “CREATININE, Change, MEAN” value [4] was -0.0 mg/dL, the “CREATININE, Change, MEDIAN” value [4] was -0.1 mg/dL and the “CREATININE, Change, MIN” value [4] was -0.2 mg/dL. The “DIRECT BILIRUBIN, Change, MAX” value [4] was 0.1 mg/dL, the “DIRECT BILIRUBIN, Change, MEAN” value [4] was -0.0 mg/dL and the “DIRECT BILIRUBIN, Change, MEDIAN” value [4] was 0.0 mg/dL. The “DIRECT BILIRUBIN, Change, MIN” value [4] was -0.1 mg/dL, the “HEMATOCRIT, Change, MAX” value [4] was 5.9% and the “HEMATOCRIT, Change, MEAN” value [4] was −0.5%. For the same molecule, the “HEMATOCRIT, Change, MEDIAN” value [4] was 0.5%, the “HEMATOCRIT, Change, MIN” value [4] was −4.7% and the “SGOT (AST), Change, MAX” value [4] was 8.0 U/L. For the same molecule, the “SGOT (AST), Change, MEAN” value [4] was −2.2 U/L, the “SGOT (AST), Change, MEDIAN” value [4] was −1.0 U/L and the “SGOT (AST), Change, MIN” value [4] was −16.0 U/L. The “SGPT (ALT), Change, MAX” value [4] was 8.0 U/L, the “SGPT (ALT), Change, MEAN” value [4] was 0.9 U/L and the “SGPT (ALT), Change, MEDIAN” value [4] was 0.0 U/L. The “SGPT (ALT), Change, MIN” value [4] was −6.0 U/L, the “TOTAL BILIRUBIN, Change, MAX” value [4] was 0.2 mg/dL and the “TOTAL BILIRUBIN, Change, MEAN” value [4] was -0.0 mg/dL. The “TOTAL BILIRUBIN, Change, MEDIAN” value [4] was 0.0 mg/dL, the “TOTAL BILIRUBIN, Change, MIN” value [4] was -0.5 mg/dL and the “UREA NITROGEN (BUN), Change, MAX” value [4] was 4.0 mg/dL. For the same molecule, the “UREA NITROGEN (BUN), Change, MEAN” value [4] was 0.1 mg/dL, the “UREA NITROGEN (BUN), Change, MEDIAN” value [4] was 0.0 mg/dL and the “UREA NITROGEN (BUN), Change, MIN” value [4] was -5.0 mg/dL. The LD50 [5] was 700-1,000 mg/Kg, the “subacute and chronic toxicity, organs involved” value [6] was “liver (degenerative changes) and the adrenal gland (increased fat deposition)” and the “time to reversal of liver and adrenal changes after discontinuation of therapy” value [6] was at most 6 months. For the same molecule, the “adverse effect of CLT therapy” value ([7]; subject one) was “no significant adverse effect”, the “changes in urinary sediment or serum BUN or creatinine values” ([7]; subjects other than ZP) was “No other subjects participating in the study demonstrated any significant changes” and the tolerability ([7]; topical CLT delivered as a rectal suppository, pediatric and adult patients) was “generally well tolerated”. For the same molecule, the “side effects of mucosal preparations” value ([8]; 1% vaginal cream, 100 mg and 500 mg tablets) was “minimal side effects”, the concurrent plasma levels [8, 15] was “lower than 0.01 μg/ml” and the “time fungicidal concentrations of CLT detected in vaginal fluid” value [8, 15] was “up to 3 days”. The “central nervous system abnormalities” value ([8]; topical application of CLT) was “No central nervous system abnormalities”, the “patients reporting gastrointestinal complaints (nausea, vomiting, and diarrhea)” value [9] was 13% and the “patients who developed chemical cystitis” value [9] was 4.4%. The “patients who developed contact dermatitis” value [9] was 2.2%, the “patients who found the therapy intolerable” value [9] was 6.5% and the “patients who tolerated CLT therapy moderately well” value [9] was 18.5%. The “patients who tolerated CLT therapy well” value [9] was 64%, the serum levels ([10]; adults, oral dose of 200 mg of CLT) was 0.2 to 0.35 µg/mL and the “drug excreted unchanged in the urine” value ([10]; oral CLT) was “only a small fraction”. For the same molecule, the route of elimination ([10]; oral CLT) was “largely in the feces via biliary excretion”, the “blood levels in oil solvent relative to tablet forms” value ([10]; oral, drug delivered in an oil solvent vs tablet) was 3-4 times higher and the “attenuation of PMN transepithelial migration” value [2, 14] was “more potent”. The “inhibition of transepithelial migration” value ([2]; incubation of T84 monolayers alone with CLT, prior to layering of untreated PMN's, compared with PMN pretreatment, FIG. 1) was “equal or greater extent”, the PMN transmigration ([2]; pretreatment of PMN's alone with CLT (30 μM) for 30 minutes, FIG. 1) was “inhibited significantly” and the “inhibition of secreted IL-8” value [1] was “High level of IL-8 inhibition”. The “IL-8 in supernatants, time-course” value ([1]; at 5 hours, Calu-3 cells pretreated, FIGS. 6 and 7) was “no IL-8 in the supernatants”, the “reduction of PMN excretion (fecal lactoferrin)” value [11] was 77% and the “effect on intracellular IL-8” value (IL-8 within Calu-3 cells; PMA stimulation) was “no effect”. For the same molecule, the “decrease in IL-8 in Calu-3 cell lysates” value (IL-8 within Calu-3 cells; Salmonella stimulation, 30 μM test compound, 5 hours) was “virtually no decrease”, the “serum CLT levels on continued therapy” value ([12]; after one week of continued daily therapy with oral tablets) was “seemed to decline” and the “adverse effect after first dose” value ([12]; normal volunteers, oral CLT in oil form, first dose of 1,000 mg) was “severe vertigo”. The “time to disappearance of all neurological symptoms after discontinuing CLT therapy” value ([12]; normal volunteers, oral CLT in oil form) was at most 24 hours and the IL-8 secretion [13] was “inhibited completely”.
